Data: patent US20210267996A1, “Compounds for inhibition of inflammation” (Children`s Medical Center Corporation, priority 2018, published 2021)
“Also recorded” adds a separate entry of the source.

Assays:
[1] = system: THP-1 cells; assay: Canonical inflammasome pyroptosis, LPS-primed THP-1 cells plus nigericin; format: cell-based, human; conditions: THP-1, nigericin
[2] = system: ASC specks; assay: ASC speck formation in LPS-primed THP-1 cells plus nigericin; format: cell-based, human; conditions: 30 μM, 1 hr before nigericin
Protocol: (§1) Immunostaining and confocal microscopy: cells grown on coverslips were fixed for 15 min with 4% paraformaldehyde in PBS, permeabilized for 5 min in 0.1% Triton X-100 in PBS and blocked using 5% BSA for 1 hr. Then, cells were stained with the indicated primary antibodies followed by incubation with fluorescent-conjugated secondary antibodies (Jackson ImmunoResearch). Nuclei were counterstained with DAPI (4,6-diamidino-2-phenylindole) (Sigma-Aldrich). Slides were mounted using Aqua-Poly/Mount (Dako). Images were captured using a laser scanning confocal microscope (Olympus Fluoview FV1000 Confocal System) with a 63× water immersion objective and Olympus Fluoview software (Olympus). All confocal images are representative of three independent experiments.
Nigericin activates the assembly of the NLRP3 canonical inflammasome using an adaptor called apoptosis-associated speck-like protein containing a caspase recruitment domain (ASC), which can be visualized in immunofluorescent microscopy as specks. When LPS-primed THP-1 cells were treated with nigericin in the absence of inhibitors, ASC specks were detected in 30% of cells (FIG. 36). As expected, speck formation was not inhibited by z-VAD-fmk, since caspase activation occurs downstream of inflammasome assembly.
(§2) Cell death was determined by CytoTox96 assay. […] Cell death was determined by CytoTox96 assay. […] Shown are immunoblots of whole cell lysates harvested 0.5 hr later. […] Representative images of ASC specks (arrowheads) and mean±s.d. percent of cells with ASC specks analyzed 20 min later (FIG. 47). Whole cell lysates (WCL) and culture supernatants (Sup) were harvested 30 min after adding nigericin and immunoblotted with the indicated antibodies (FIG. 50). Caspase-1 activity was assayed 30 min after adding nigericin using a cell-permeable fluorescence dye FAM-YVAD-FMK (FIG. 52). […] Representative images of ASC specks (arrowheads) and mean±s.d. percent of cells with ASC specks analyzed 20 min later (FIGS. 48 and 49). Whole cell lysates (WCL) and culture supernatants (Sup), harvested 30 min after adding nigericin, were analyzed by immunoblot (FIG. 51). […] The Figures show representative confocal microscopy images and quantification of proportion of cells with GSDMD membrane staining and pyroptotic bubbles. Arrows indicate GSDMD staining of pyroptotic bubbles. […] FIGS. 57 and 58, dose response curve of the effect of Bay 11-7082 on caspase-1 (FIG. 57) and caspase-11 (FIG. 58) activity against a fluorescent peptide substrate. […] (FIG. 60). FIGS. 61 and 62 show dose response curve of the effect of Bay 11-7082 on liposome leakage induced by 0.3 μM human GSDMD-3C (FIG. 61) or mouse GSDMA3-3C (FIG. 62) plus 0.15 μM 3C protease. […] 2-fold dilutions of Bay 11-7082 from 5-40 μM were used. Graphs show the mean±s.d; data are representative of three independent experiments. *P<0.05, **P<0.01.

[3] = system: caspase-1, GSDMD, and pro-IL-1β; assay: Caspase-1, GSDMD, pro-IL-1β cleavage and IL-1β secretion by immunoblot, THP-1; format: cell-based, human; conditions: 30 μM
Protocol: Immunoblot analysis: cell extracts were prepared using RIPA buffer (50 mM Tris-HCl pH 7.4, 150 mM NaCl, 1 mM EDTA, 1% Triton X-100, 0.1% SDS, 0.5% deoxycholate) supplemented with a complete protease inhibitor cocktail (Roche) and a PhosSTOP phosphatase inhibitor cocktail (Roche). Samples were subjected to SDS-PAGE and the resolved proteins were then transferred to a PVDF membrane (Millipore). Immunoblots were probed with indicated antibodies and visualized using a SuperSignal West Pico chemiluminescence ECL kit (Pierce).
To assess which steps in NLRP3-mediated inflammation were inhibited post ASC speck formation, LPS-primed THP-1 cells were treated with vehicle or 30 μM z-VAD-fmk, disulfiram or Bay 11-7082 1 hr before adding nigericin, and cleavage and activation of caspase-1, GSDMD, and pro-IL-1β were analysed by immunoblot of whole cell lysates 30 min later (FIG. 50). Secretion of processed IL-1β was also assessed by immunoblot of culture supernatants. […] Because immunoblots are not quantitative, caspase-1 activity 30 min after adding nigericin was also assessed using a fluorescent substrate in intact cells. […] Next, the effect of z-VAD-fmk, disulfiram and Bay 11-7082 on LPS+nigericin-induced GSDMD pore formation was assessed by immunofluorescence microscopy using a monoclonal antibody that was generated that recognizes both uncleaved GSDMD and its pore form (FIGS. 53, 54, and 64-66). In the absence of any inhibitor, the GSDMD antibody stained both the cytosol and the plasma membrane of LPS plus nigericin treated cells, which formed characteristic pyroptotic bubbles (See Reference 10). […] Thus, disulfiram and Bay 11-7082 inhibit multiple steps leading to canonical inflammasome-induced pyroptosis and inflammatory cytokine release, including priming, inflammasome assembly, inflammatory caspase activation, pro-inflammatory cytokine processing and GSDMD pore formation.
as §2
Canonical inflammasome assembly activates caspase-1, which cleaves pro-IL-1β and GSDMD, and the latter is needed to release processed IL-1β and to induce pyroptosis. […]

[4] = system: caspase-1; assay: Caspase-1 activity assay in cells (FAM-YVAD-FMK); format: cell-based, human; conditions: 30 μM, 30 min after nigericin
Protocol: Caspase-1 activity assay in cells: to measure caspase-1 activation, THP-1 cells were seeded into 96-well plates and differentiated with PMA. After the indicated treatments, cells were incubated with a fluorescent active caspase-1 substrate FAM-YVAD-FMK (Immunochemistry Technologies). Samples were read on a BioTek Synergy 2 plate reader.
as §2

[5] = system: GSDMD pore formation; assay: GSDMD membrane staining and pyroptotic bubbles, immunofluorescence; format: cell-based, human; conditions: 30 μM, 30 min after nigericin
Protocol: as §1
To assess which steps in NLRP3-mediated inflammation were inhibited post ASC speck formation, LPS-primed THP-1 cells were treated with vehicle or 30 μM z-VAD-fmk, disulfiram or Bay 11-7082 1 hr before adding nigericin, and cleavage and activation of caspase-1, GSDMD, and pro-IL-1β were analysed by immunoblot of whole cell lysates 30 min later (FIG. 50). Secretion of processed IL-1β was also assessed by immunoblot of culture supernatants. […] Because immunoblots are not quantitative, caspase-1 activity 30 min after adding nigericin was also assessed using a fluorescent substrate in intact cells. […] Next, the effect of z-VAD-fmk, disulfiram and Bay 11-7082 on LPS+nigericin-induced GSDMD pore formation was assessed by immunofluorescence microscopy using a monoclonal antibody that was generated that recognizes both uncleaved GSDMD and its pore form (FIGS. 53, 54, and 64-66). […]
Cell death was determined by CytoTox96 assay. […] Cell death was determined by CytoTox96 assay. […] Representative images of ASC specks (arrowheads) and mean±s.d. percent of cells with ASC specks analyzed 20 min later (FIG. 47). […] Caspase-1 activity was assayed 30 min after adding nigericin using a cell-permeable fluorescence dye FAM-YVAD-FMK (FIG. 52). […]

[6] = system: mouse iBMDMs; assay: Processing of caspase-1, GSDMD and IL-1β in iBMDMs (immunoblot); format: cell-based; conditions: 1 hr time point
Protocol: (§3) FIG. 97 contains a bar graph showing results of an experiment where LPS-primed THP-1 cells, after medium removal, were incubated with probe FAM-YVAD-FMK in FLICA assay buffer for another 0.5 hr before fluorescence reading. iBMDMs were pretreated with disulfiram, Bay 11-7082, necrosulfonamide (NSA) or z-VAD-fmk for 1 hr before treated or not with Nigericin for 0.5 hr. Whole cell lysates and culture supernatants were immunoblotted with the indicated antibodies.
as §3, with “FIG. 98” for “FIG. 97”, “for 1” for “for 0.5”
Canonical inflammasome assembly activates caspase-1, which cleaves pro-IL-1β and GSDMD, and the latter is needed to release processed IL-1β and to induce pyroptosis. To assess which steps in NLRP3-mediated inflammation were inhibited post ASC speck formation, LPS-primed THP-1 cells were treated with vehicle, 30 μM z-VAD-fmk or disulfiram 1 hour before adding nigericin, and cleavage and activation of caspase-1, GSDMD, and pro-IL-1β were analysed by immunoblot of whole cell lysates 30 min later and 1 hr later. Secretion of processed IL-1β was also assessed by immunoblot of culture supernatants. […] The 1 hr time point is relevant as the cell death and IL-1β release measurements used cells stimulated with nigericin for 1 and 2 hrs, respectively.

- processing of caspase-1, GSDMD and pro-IL-1β ([3]; 60 min after nigericin): still showed little cleavage
- processing of caspase-1, GSDMD and IL-1β [6]: still inhibited processing
Compound: COC(=O)C[C@@H](C(=O)CF)N(C(=O)[C@@H](NC(=O)OCc1ccccc1)C(C)C)[C@@H](C)C(N)=O [z-VAD-fmk]
- inhibition of canonical inflammasome pyroptosis [1]: inhibits the canonical inflammasome pathway
- ASC speck formation [2]: not inhibited
- processed IL-1β in culture supernatants [3]: only detected in the culture supernatants in the absence of any inhibitor; also recorded: only detected in culture supernatants in the absence of either inhibitor
- caspase-1, GSDMD and pro-IL-1β cleavage ([3]; 30 min after nigericin): dramatically reduced; also recorded: processing was reduced
- caspase-1 activity in intact cells [4]: completely inhibited
- GSDMD membrane staining and pyroptotic bubbles [5]: completely blocked
